Source: ChEMBL document CHEMBL5678818, “Discovery of potent SOS1 inhibitors that block RAS activation via disruption of the RAS-SOS1 interaction” (Proc Natl Acad Sci U S A, 2019)

How the values were obtained:
[1] = system: Tyrosine-protein kinase ABL1 (Homo sapiens), P00519 [F317L]; assay: Inhibition of nonphosphorylated ABL1 F317L mutant (unknown origin) assessed as residual activity at 1000 nM by KINOMEscan analysis relative to control
[2] = target: Calcium/calmodulin-dependent protein kinase type II subunit alpha (Homo sapiens) (UniProt Q9UQM7); assay: Inhibition of CAMK2A (unknown origin) assessed as residual activity at 1000 nM by KINOMEscan analysis relative to control
[3] = target: T1, Serine/threonine-protein kinase 17B (Homo sapiens) (UniProt O94768); assay: Inhibition of DRAK2 (unknown origin) assessed as residual activity at 1000 nM by KINOMEscan analysis relative to control
T1 sequence (whole entry): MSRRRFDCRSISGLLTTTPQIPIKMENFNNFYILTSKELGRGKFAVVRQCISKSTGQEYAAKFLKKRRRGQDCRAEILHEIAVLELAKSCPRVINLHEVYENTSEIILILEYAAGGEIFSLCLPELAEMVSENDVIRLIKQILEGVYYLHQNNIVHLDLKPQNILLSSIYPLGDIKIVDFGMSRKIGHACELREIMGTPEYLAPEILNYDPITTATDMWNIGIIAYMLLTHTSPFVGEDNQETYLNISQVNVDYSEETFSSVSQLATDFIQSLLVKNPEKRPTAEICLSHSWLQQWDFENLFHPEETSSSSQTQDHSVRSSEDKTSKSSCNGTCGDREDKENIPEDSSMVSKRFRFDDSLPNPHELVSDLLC

[4] = system: Epidermal growth factor receptor (Homo sapiens), P00533 [L858R,T790M]; assay: Inhibition of EGFR L858R/T790M mutant (unknown origin) assessed as residual activity at 1000 nM by KINOMEscan analysis relative to control
[5] = target: Insulin receptor-related protein (Homo sapiens) (UniProt P14616); assay: Inhibition of INSRR (unknown origin) assessed as residual activity at 1000 nM by KINOMEscan analysis relative to control
[6] = system: Mast/stem cell growth factor receptor Kit (Homo sapiens), P10721 [D816V]; assay: Inhibition of KIT D816V mutant (unknown origin) assessed as residual activity at 1000 nM by KINOMEscan analysis relative to control
[7] = target: T2, Serine/threonine-protein kinase STK11 (Homo sapiens) (UniProt Q15831); assay: Inhibition of LKB1 (unknown origin) assessed as residual activity at 1000 nM by KINOMEscan analysis relative to control
T2 sequence (whole entry): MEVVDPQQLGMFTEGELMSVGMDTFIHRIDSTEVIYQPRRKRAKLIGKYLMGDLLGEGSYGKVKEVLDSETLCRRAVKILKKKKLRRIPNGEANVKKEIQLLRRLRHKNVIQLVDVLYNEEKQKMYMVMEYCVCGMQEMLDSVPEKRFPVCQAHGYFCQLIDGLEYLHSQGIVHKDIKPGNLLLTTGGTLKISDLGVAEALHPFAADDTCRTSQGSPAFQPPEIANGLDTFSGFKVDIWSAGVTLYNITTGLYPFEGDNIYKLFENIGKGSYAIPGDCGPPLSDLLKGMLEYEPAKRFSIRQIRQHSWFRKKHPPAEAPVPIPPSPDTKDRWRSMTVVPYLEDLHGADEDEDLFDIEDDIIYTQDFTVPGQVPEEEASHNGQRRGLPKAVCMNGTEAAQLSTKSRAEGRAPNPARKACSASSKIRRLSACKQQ

[8] = target: Serine/threonine-protein kinase 26 (Homo sapiens) (UniProt Q9P289); assay: Inhibition of MST4 (unknown origin) assessed as residual activity at 1000 nM by KINOMEscan analysis relative to control
[9] = target: Receptor-interacting serine/threonine-protein kinase 2 (Homo sapiens) (UniProt O43353); assay: Inhibition of RIPK2 (unknown origin) assessed as residual activity at 1000 nM by KINOMEscan analysis relative to control
[10] = target: NT-3 growth factor receptor (Homo sapiens) (UniProt Q16288); assay: Inhibition of TRKC (unknown origin) assessed as residual activity at 1000 nM by KINOMEscan analysis relative to control
[11] = target: T3, Serine/threonine-protein kinase ULK2 (Homo sapiens) (UniProt Q8IYT8); assay: Inhibition of ULK2 (unknown origin) assessed as residual activity at 1000 nM by KINOMEscan analysis relative to control
T3 sequence (whole entry): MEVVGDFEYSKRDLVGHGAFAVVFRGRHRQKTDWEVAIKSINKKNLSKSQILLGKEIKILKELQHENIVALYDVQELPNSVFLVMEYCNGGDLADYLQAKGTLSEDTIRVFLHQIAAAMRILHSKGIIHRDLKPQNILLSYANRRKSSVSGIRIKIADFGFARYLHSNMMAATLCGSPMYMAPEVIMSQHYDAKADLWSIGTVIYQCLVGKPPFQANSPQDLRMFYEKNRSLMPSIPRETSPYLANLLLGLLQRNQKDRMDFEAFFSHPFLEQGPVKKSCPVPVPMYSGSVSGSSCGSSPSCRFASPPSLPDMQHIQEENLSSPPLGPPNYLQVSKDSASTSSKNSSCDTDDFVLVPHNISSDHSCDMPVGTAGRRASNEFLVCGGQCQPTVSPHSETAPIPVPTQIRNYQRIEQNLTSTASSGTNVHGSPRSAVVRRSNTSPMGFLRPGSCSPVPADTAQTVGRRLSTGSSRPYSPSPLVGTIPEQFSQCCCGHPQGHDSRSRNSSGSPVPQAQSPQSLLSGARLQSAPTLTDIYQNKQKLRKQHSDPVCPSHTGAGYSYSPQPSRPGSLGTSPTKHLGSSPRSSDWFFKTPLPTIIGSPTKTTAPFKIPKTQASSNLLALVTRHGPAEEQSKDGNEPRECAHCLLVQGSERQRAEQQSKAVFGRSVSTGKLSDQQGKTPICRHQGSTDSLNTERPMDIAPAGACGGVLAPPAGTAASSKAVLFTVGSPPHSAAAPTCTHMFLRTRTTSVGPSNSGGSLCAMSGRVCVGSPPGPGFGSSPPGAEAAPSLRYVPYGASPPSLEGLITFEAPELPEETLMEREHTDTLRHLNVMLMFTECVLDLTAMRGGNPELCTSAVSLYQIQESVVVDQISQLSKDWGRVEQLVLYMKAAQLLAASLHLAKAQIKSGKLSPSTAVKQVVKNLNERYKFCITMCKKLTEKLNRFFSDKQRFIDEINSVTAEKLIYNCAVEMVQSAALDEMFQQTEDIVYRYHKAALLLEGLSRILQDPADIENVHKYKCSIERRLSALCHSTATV

[12] = target: Serine/threonine-protein kinase WNK1 (Homo sapiens) (UniProt Q9H4A3); assay: Inhibition of WNK1 (unknown origin) assessed as residual activity at 1000 nM by KINOMEscan analysis relative to control
[13] = target: Serine/threonine-protein kinase 4 (Homo sapiens) (UniProt Q13043); assay: Inhibition of MST1 (unknown origin) assessed as residual activity at 1000 nM by KINOMEscan analysis relative to control
Serine/threonine-protein kinase 4 (Homo sapiens), sequence (Q13043 whole entry, looked up): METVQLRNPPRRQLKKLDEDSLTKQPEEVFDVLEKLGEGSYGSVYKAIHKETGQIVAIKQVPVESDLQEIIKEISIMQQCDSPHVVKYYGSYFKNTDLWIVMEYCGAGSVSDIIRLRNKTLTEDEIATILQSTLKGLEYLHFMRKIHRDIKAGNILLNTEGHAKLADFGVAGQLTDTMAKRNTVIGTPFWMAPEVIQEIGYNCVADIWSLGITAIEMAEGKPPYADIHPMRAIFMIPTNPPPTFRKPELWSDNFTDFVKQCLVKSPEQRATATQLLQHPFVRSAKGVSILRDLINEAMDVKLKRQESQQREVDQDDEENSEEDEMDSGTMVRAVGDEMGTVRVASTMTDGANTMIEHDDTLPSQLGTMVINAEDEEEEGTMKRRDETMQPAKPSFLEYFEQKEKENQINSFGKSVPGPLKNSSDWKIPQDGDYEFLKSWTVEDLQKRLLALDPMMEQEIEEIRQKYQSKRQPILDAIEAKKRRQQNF

Insulin receptor-related protein (Homo sapiens), sequence (P14616 27-742 limits assumed): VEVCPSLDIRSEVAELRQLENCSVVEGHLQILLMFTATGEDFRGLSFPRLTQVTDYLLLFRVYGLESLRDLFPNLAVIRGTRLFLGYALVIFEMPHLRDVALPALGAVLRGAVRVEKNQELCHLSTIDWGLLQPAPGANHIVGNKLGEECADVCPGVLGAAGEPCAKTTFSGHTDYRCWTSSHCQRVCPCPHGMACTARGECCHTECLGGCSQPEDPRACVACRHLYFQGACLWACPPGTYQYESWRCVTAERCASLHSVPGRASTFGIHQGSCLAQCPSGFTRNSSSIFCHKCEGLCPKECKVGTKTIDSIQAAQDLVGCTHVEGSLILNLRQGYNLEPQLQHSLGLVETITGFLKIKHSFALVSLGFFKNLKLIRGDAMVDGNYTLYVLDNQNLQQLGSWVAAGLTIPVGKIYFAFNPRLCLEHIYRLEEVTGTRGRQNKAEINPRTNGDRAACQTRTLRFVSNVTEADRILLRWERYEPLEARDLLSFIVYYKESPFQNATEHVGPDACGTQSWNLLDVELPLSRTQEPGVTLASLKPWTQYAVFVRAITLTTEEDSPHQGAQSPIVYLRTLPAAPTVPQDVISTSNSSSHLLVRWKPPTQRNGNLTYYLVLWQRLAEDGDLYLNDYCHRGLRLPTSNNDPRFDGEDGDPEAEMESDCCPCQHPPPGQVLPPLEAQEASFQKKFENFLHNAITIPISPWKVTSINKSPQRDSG
Insulin receptor-related protein (Homo sapiens), sequence (P14616 747-1297 limits assumed): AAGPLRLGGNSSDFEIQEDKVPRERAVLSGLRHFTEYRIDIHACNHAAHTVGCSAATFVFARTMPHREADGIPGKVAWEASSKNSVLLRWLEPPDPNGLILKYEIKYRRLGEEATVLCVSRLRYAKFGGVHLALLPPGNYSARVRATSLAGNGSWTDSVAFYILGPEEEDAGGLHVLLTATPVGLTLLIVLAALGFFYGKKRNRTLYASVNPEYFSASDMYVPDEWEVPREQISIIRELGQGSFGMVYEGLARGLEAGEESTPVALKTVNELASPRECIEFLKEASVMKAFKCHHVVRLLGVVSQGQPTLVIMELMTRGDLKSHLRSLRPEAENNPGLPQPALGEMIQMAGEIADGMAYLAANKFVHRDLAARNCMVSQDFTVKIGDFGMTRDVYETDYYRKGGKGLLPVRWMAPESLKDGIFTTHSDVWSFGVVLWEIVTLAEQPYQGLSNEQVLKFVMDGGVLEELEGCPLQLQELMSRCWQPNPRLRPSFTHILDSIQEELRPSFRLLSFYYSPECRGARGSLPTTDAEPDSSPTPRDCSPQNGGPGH
Mast/stem cell growth factor receptor Kit (Homo sapiens), P10721 [D816V], sequence (P10721 whole entry D816V): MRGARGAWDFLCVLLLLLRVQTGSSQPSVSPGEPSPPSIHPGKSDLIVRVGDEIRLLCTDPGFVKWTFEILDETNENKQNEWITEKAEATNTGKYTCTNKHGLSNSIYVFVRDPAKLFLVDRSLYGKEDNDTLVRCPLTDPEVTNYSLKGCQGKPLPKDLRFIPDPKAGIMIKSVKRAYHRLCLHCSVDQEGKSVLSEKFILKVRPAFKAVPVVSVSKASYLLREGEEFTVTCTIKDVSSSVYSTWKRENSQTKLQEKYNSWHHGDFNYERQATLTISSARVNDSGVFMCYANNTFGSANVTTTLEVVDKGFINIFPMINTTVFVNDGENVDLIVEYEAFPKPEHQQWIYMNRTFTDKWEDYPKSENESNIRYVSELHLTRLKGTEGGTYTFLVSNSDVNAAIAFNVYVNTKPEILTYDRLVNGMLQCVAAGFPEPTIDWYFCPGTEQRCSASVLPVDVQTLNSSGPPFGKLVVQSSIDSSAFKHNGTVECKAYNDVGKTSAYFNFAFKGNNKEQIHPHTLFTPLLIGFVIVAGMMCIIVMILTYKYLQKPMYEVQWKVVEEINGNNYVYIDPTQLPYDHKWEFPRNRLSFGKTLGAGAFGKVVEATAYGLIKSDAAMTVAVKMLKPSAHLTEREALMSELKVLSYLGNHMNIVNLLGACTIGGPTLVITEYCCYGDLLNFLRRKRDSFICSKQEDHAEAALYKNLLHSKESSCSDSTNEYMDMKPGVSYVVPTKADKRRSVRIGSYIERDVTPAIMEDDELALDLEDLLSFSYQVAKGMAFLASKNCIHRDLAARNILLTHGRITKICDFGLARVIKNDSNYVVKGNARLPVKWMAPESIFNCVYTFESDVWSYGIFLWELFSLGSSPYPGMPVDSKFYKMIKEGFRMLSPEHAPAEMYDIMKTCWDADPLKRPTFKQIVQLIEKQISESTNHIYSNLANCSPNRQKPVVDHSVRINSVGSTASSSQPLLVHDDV
NT-3 growth factor receptor (Homo sapiens), sequence (Q16288 32-839 limits assumed): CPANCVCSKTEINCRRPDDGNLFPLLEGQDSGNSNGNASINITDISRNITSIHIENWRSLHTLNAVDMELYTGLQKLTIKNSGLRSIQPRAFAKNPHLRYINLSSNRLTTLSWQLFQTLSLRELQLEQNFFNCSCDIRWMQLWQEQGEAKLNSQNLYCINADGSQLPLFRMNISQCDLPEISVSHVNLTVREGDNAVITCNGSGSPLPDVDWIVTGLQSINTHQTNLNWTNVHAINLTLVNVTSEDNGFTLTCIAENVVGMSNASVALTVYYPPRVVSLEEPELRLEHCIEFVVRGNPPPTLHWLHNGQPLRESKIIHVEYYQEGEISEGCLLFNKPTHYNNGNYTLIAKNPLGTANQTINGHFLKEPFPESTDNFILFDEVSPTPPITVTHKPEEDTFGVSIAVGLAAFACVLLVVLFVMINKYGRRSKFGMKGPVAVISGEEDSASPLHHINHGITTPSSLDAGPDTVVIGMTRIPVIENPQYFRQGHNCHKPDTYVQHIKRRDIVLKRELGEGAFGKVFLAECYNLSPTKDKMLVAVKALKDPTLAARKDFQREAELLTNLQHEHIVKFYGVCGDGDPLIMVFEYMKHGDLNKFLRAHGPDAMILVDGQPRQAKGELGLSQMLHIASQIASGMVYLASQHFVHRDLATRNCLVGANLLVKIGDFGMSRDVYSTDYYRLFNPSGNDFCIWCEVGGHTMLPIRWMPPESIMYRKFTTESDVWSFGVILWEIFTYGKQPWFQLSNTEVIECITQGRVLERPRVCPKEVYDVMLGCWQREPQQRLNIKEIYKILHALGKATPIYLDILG
Serine/threonine-protein kinase 26 (Homo sapiens), sequence (Q9P289 2-416 limits assumed): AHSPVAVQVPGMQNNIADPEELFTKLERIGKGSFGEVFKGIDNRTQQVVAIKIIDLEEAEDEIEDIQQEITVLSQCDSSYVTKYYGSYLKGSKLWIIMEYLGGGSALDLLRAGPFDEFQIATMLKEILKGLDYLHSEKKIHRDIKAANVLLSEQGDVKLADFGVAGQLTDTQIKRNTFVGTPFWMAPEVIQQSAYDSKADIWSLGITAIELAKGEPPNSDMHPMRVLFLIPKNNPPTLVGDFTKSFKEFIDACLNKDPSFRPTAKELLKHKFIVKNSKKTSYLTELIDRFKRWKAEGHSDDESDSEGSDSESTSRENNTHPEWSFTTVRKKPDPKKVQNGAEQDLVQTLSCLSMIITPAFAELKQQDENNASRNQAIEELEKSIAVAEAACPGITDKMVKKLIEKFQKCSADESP
Calcium/calmodulin-dependent protein kinase type II subunit alpha (Homo sapiens), sequence (Q9UQM7 whole entry): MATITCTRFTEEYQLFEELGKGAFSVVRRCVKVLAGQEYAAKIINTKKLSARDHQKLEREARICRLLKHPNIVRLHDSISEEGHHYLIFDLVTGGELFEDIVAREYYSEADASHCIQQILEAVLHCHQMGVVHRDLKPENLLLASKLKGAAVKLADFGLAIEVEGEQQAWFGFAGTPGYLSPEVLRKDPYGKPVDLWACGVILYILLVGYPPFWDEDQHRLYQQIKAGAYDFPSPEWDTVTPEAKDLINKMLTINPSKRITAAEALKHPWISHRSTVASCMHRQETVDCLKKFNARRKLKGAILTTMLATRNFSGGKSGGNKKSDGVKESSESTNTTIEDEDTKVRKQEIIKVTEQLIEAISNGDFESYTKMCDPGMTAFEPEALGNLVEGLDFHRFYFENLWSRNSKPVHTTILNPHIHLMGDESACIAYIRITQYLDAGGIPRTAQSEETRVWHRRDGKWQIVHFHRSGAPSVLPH
Receptor-interacting serine/threonine-protein kinase 2 (Homo sapiens), sequence (O43353 whole entry): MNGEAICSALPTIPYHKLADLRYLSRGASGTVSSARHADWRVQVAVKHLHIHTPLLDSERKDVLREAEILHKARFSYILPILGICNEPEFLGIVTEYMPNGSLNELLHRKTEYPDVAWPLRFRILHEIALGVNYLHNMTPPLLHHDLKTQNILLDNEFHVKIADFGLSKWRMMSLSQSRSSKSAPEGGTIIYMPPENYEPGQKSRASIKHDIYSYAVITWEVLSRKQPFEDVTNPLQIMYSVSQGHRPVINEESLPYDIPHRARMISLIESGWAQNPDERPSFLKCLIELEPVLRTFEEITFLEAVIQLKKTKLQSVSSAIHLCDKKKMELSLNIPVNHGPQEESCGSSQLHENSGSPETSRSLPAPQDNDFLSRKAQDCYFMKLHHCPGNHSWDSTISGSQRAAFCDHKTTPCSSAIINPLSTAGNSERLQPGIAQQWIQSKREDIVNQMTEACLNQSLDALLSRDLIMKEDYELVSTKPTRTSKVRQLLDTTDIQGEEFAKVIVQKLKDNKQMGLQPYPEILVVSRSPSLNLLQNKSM

Structure (SMILES)	Activity [1]	Activity [2]	Activity [3]	Activity [4]	Activity [5]	Activity [6]	Activity [7]	Activity [8]	Activity [9]	Activity [10]	Activity [11]	Activity [12]	Activity [13]
COc1cc2nc(C)nc(N[C@H](C)c3cccc(-c4cn[nH]c4)c3)c2cc1OC	99%	94%	67%	92%	97%	55%	100%	74%	73%	88%	60%	86%	97%
COc1cc2ncnc(N[C@H](C)c3cccc4ccccc34)c2cc1OC	99%	95%	100%	74%	93%	96%	100%	98%	99%	95%	92%	100%	99%
